Results published in US6319929A, “Suksdorfin analogs, compositions thereof, and methods for making and using thereof” (priority 1998, dated 2001).
Values joined by “and” are separate entries in the source; they are usually repeats but may differ in a detail not shown here. Identical values can stand only once. Like-named read-outs stand apart in the source and are kept apart here.

Tests used:
uninfected H9 cells = experiment: Toxicity to uninfected H9 cells (cell growth); assay type: cell-based; conditions: Homo sapiens
Description: HIV inhibition assay. The HIV inhibition was measured as described herein. Briefly, H9 cells, a T cell line, (3.5×10^6 cells/ml) were incubated in the presence or absence of HIV-1 (IIIB strain, 0.01-0.1 TCID50 /cell) for 1 hour at 37° C. Cells were washed thoroughly and resuspended at a final concentration of 2×10^5 cells/ml in the presence or absence of compound. After incubation for 3-4 days at 37° C., the cell density of uninfected cultures was determined by cell count to assess toxicity of the drug. An aliquot of each cell-free supernatant was assayed by p24 antigen ELISA to quantitate the amount of HIV-1 present in the infected cultures. Test compounds were considered to be active at a particular concentration if p24 antigen levels were less than 70% of infected, untreated controls and were nontoxic to uninfected H9 cells.
(§1) HIV Growth Inhibition Assay: The T cell line, H9, and the promonocytic cell line, U937, were maintained separately in continuous culture with complete medium (RPMI 1640 and […] fetal calf serum (FCS) at 5% CO2 and 37° C. Cell lines were used in experiments only when in log phase of growth; whereas, uninfected peripheral blood mononuclear cells (PBMCs) were first stimulated with PHA (1 μg/ml) for 3 days. All cell targets were incubated with HIV-1 (IIIB isolate, TCID50 10 ^4 IU/mi, at a multiplicity of infection of 0.1-0.01 IU/cell) for 1 hour at 37° C. and 5% CO2. The cell lines and PBMCs were washed thoroughly to remove unabsorbed virions and resuspended at 4×10^5 cells/ml in complete medium or complete medium with 10% v/v interleukin […] IL-2, respectively. Aliquots ( ml) were placed in wells of 24-well culture plates containing an equal volume of test compound (diluted in the appropriate culture medium). After incubation for 4 days at 37° C., cell density of uninfected cultures was determined by counting cells in a Coulter counter to assess toxicity of the test compound. A p24 antigen ELISA assay was used to determine the level of virus released in the medium of the HIV-infected cultures. The p24 antigen assay uses a HIV-1 anti-p24 specific monoclonal antibody as the capture antibody coated-on 96-well plates. Following a sample incubation period, rabbit serum containing antibodies for HIV-1 p24 is used to tag any p24 "captured" onto the microtiter well surface. Peroxidase conjugated goat anti-rabbit serum is then used to tag HIV-1 p24 specific rabbit antibodies which have complexed with captured p24. […] The cut-off for the p24 ELISA assay is 12. pg/ml. P24 in the culture medium was quantitated against a standard curve containing known amounts of p24. The effective (EC50) and inhibitory (IC50) concentrations (for anti-HIV activity and cytotoxicity, respectively) were determined graphically. Both the EC50 and IC50 values were calculated by plotting drug concentration versus percent inhibition, and then identifying a 50% inhibition value from the graph.

[1] = system: HIV-1 replication in fresh monocytes; experiment: HIV-1 infection of fresh monocytes obtained by adherence (p24); assay type: cell-based; conditions: for inhibition at 0.032 µg/mL / inhibition at 0.16 µg/mL / inhibition at 0.8 µg/mL / inhibition at 4 µg/mL / inhibition at 20 µg/mL: Human immunodeficiency virus 1, Monocyte, read-out: % suppression
Text: Results (Table 12) from adding Suksdorfin to fresh monocytes infected with HIV-1.
The monocytes which were used for this experiment were obtained by adherence and not by elutriation; therefore, this cell population is not as pure as what was used for the 16 monocyte data above.

[2] = system: HIV-1 replication in PBMCs; experiment: HIV-1 replication in acutely infected PBMCs; assay type: cell-based, HIV-1 (IIIB); conditions: for EC50: Human immunodeficiency virus 1, PBMC, PBMCs; for suppression of acute HIV-1 replication in PBMCs (in words): fresh PBMCs
Description: Suksdorf in was tested on peripheral blood mononuclear cells (PBMCS) which were stimulated for 3 days with PHA (1 .parallel.g/ml). The cells were collected and then infected with the 20X stock HIV-1 (IIIB). This is the same virus that is used in the drug screening assay. PBMCs were used for the following reasons: (1) It is another type of T cell infection. (2) PMBCs are freshly isolated cells not a cell line as are H9 cells. (3) We need to know if the effects of suksdorfin were limited to only an acute HIV-1 infection of a T cell line such as H9 cells. After the cells were infected with HIV-1, the cells were washed and then placed in medium with the cytokine, interleukin 2 (IL-2). IL-2 is needed to keep the cells activated which is necessary also for virus replication.
(§2) As part of efforts to biologically characterize 16 the monocytic cell line, U937 and peripheral blood mononuclear cells (PBMCs) were separately infected with HIV-1 and then had various concentrations of the analog added for 4 days of culture.
as §1

[3] = system: HIV-1 replication in U937 cells; experiment: HIV-1 replication in acutely infected promonocytic U937 cells; assay type: cell-based, HIV-1 (IIIB); conditions: for EC50: Human immunodeficiency virus 1, U-937
Description: Suksdorfin was also tested on an acute HIV-1 infection of the promonocytic cell line, U937. This was done again to determine drug specificity but this time on a monocytic cell line.
as §2, §1

Cc1cn([C@H]2C[C@H](N=[N+]=[N-])[C@@H](CO)O2)c(=O)[nH]c1=O [AZT, azidothymidine, reference compound]
IC50 (uninfected H9 cells; H9, Table 3, H9 lymphocytes): 2000 µM
IC50 (uninfected H9 cells; H9, Table 17, uninfected H9 cell growth): 1880 µM
p24 ([1]; Day 6, 0.008 μg/ml): 42,004 pg/ml
p24 ([1]; Day 6, 0.04 μg/ml): 23,234 pg/ml
p24 ([1]; Day 6, 0.2 μg/ml): 34,360 pg/ml
p24 ([1]; Day 6, 1 μg/ml): 8,705 pg/ml
p24 ([1]; Day 6, 5 μg/ml): 13,542 pg/ml
p24 ([1]; Day 12, 0.008 μg/ml): 70,380 pg/ml
p24 ([1]; Day 12, 0.04 μg/ml): 17,144 pg/ml
p24 ([1]; Day 12, 0.2 μg/ml): 32,778 pg/ml
p24 ([1]; Day 12, 1 μg/ml): 5,354 pg/ml
p24 ([1]; Day 12, 5 μg/ml): 10,170 pg/ml
p24 ([1]; Day 18, 0.008 μg/ml): 75,428 pg/ml
p24 ([1]; Day 18, 0.04 μg/ml): 22,993 pg/ml
p24 ([1]; Day 18, 0.2 μg/ml): 31,759 pg/ml
p24 ([1]; Day 18, 1 μg/ml): 6,830 pg/ml
p24 ([1]; Day 18, 5 μg/ml): 12,330 pg/ml

CC1(C)Oc2ccc3ccc(=O)oc3c2[C@@H](OC(=O)[C@@]23CC[C@@](C)(C(=O)O2)C3(C)C)[C@H]1OC(=O)[C@@]12CC[C@@](C)(C(=O)O1)C2(C)C [Compound 16, 3',4'-Di-O-(-)-Camphanoyl-(+)-cis-Khellactone]
EC50 [2]: 0.018 µg/mL and 29 nM
suppression of acute HIV-1 replication in PBMCs (in words) [2]: suppression detected
EC50 ([3]; U937 cell line): 0.00128 µg/mL
EC50 ([3]; U937 cells): 0.0021 µM
suppression of acute HIV-1 replication in U937 cells (in words) ([3]; U937 cells): suppression detected

CC(=O)O[C@@H]1[C@H](OC(=O)CC(C)C)c2c(ccc3ccc(=O)oc23)OC1(C)C [Suksdorfin, suksdorfin]
IC50 (uninfected H9 cells; H9, Table 14, concentration which inhibits uninfected cell growth by 50%, read-out: IC50 (μM)^a): > 52 µM
IC50 (uninfected H9 cells; H9, Table 17, uninfected H9 cell growth, read-out: IC50): > 52 µM
IC50 (uninfected H9 cells; H9, concentration which inhibits uninfected cell growth by 50%, read-out: IC50): > 52 µM
EC50 [2]: 3.9 µM
EC50 ([2]; Table 6): 1.5 µg/mL
suppression of acute HIV-1 replication in PBMCs (in words) [2]: can suppress an acute HIV-1 replication
EC50 ([3]; U937 cell line): 0.58 µg/mL
EC50 ([3]; U937 cells): 1.5 µM
Therapeutic Index ([3]; U937 cell line, 5760 min): > 34.5
suppression of acute HIV-1 replication in U937 cells (in words) ([3]; U937 cells): can suppress an acute HIV-1 replication
EC50 from U937 cells relative to that for PBMCs ([3]; U937 versus PBMCs): approximately one third
p24 ([1]; Day 6, 0.032 μg/ml): 64,614 pg/ml
p24 ([1]; Day 6, 0.16 μg/ml): 70,195 pg/ml
p24 ([1]; Day 6, 0.8 μg/ml): 53,043 pg/ml
p24 ([1]; Day 6, 4 μg/ml): 48,748 pg/ml
p24 ([1]; Day 6, 20 μg/ml): 16,712 pg/ml
p24 ([1]; Day 12, 0.032 μg/ml): 173,998 pg/ml
p24 ([1]; Day 12, 0.16 μg/ml): 203,633 pg/ml
p24 ([1]; Day 12, 0.8 μg/ml): 163,656 pg/ml
p24 ([1]; Day 12, 4 μg/ml): 89,467 pg/ml
p24 ([1]; Day 12, 20 μg/ml): 25,567 pg/ml
p24 ([1]; Day 18, 0.032 μg/ml): 105,882 pg/ml
p24 ([1]; Day 18, 0.16 μg/ml): 125,440 pg/ml
p24 ([1]; Day 18, 0.8 μg/ml): 130,970 pg/ml
p24 ([1]; Day 18, 4 μg/ml): 103,834 pg/ml
p24 ([1]; Day 18, 20 μg/ml): 23,506 pg/ml
inhibition at 0.032 µg/mL ([1]; 144 h, Day 6, 0.032 μg/ml): 0%
inhibition at 0.16 µg/mL ([1]; 144 h, Day 6, 0.16 μg/ml): 0%
inhibition at 0.8 µg/mL ([1]; 144 h, Day 6, 0.8 μg/ml): 0%
inhibition at 4 µg/mL ([1]; 144 h, Day 6, 4 μg/ml): 18%
inhibition at 20 µg/mL ([1]; 144 h, Day 6, 20 μg/ml): 72%
inhibition at 0.032 µg/mL ([1]; 288 h, Day 12, 0.032 μg/ml): 0%
inhibition at 0.16 µg/mL ([1]; 288 h, Day 12, 0.16 μg/ml): 0%
inhibition at 0.8 µg/mL ([1]; 288 h, Day 12, 0.8 μg/ml): 40%
inhibition at 4 µg/mL ([1]; 288 h, Day 12, 4 μg/ml): 67%
inhibition at 20 µg/mL ([1]; 288 h, Day 12, 20 μg/ml): 91%
inhibition at 0.032 µg/mL ([1]; 432 h, Day 18, 0.032 μg/ml): 0%
inhibition at 0.16 µg/mL ([1]; 432 h, Day 18, 0.16 μg/ml): 0%
inhibition at 0.8 µg/mL ([1]; 432 h, Day 18, 0.8 μg/ml): 0%
inhibition at 4 µg/mL ([1]; 432 h, Day 18, 4 μg/ml): 0%
inhibition at 20 µg/mL ([1]; 432 h, Day 18, 20 μg/ml): 78%
suppression of HIV-1 replication in fresh monocytes (in words) ([1]; suksdorfin at 20 and 4 μg/ml, AZT positive control): did suppress HIV-1 replication in fresh monocytes
